Data on 1 compound can be found in US7598250B2, “Cyclic amine BACE-1 inhibitors having a heterocyclic substituent” (Schering Corporation, priority 2003, dated 2009).

For the assay, the target named is T1, sproBACE1 (soluble human BACE1) (Homo sapiens, UniProt P56817).
T1 construct: sBACE1, corresponding to amino acids 1-454; made in house; host or cells: Sf9 insect cells (baculovirus), secreted into the medium
The assay can be described thus: Peptide Hydrolysis Assay (HTRF, EuK-biotin labeled APPsw substrate). The format is biochemical. To be noted: 7 nM sproBACE1, APPsw substrate, pH 5.0, 3 hr at 30° C., HTRF 665/620 ratio. From the text: A predicted soluble form of human BACE1 (sBACE1, corresponding to amino acids 1-454) was generated from the full length BACE1 cDNA (full length human BACE1 cDNA in pCDNA4/mycHisA construct; University of Toronto) by PCR using the advantage-GC cDNA PCR kit (Clontech, Palo Alto, Calif.). A HindIII/Pmel fragment from pCDNA4-sBACE1myc/His was blunt ended using Klenow and subcloned into the Stu I site of pFASTBACI(A) (Invitrogen). A sBACE1mycHis recombinant bacmid was generated by transposition in DH10Bac cells(GIBCO/BRL). Subsequently, the sBACE1mycHis bacmid construct was transfected into sf9 cells using CellFectin (Invitrogen, San Diego, Calif.) in order to generate recombinant baculovirus. […]
Proteins, were eluted from the Q-sepharose column with Buffer B (20 mM HEPES, pH 8.0, 500 mM NaCl). […] Peak protein fractions as determined by the Bradford Assay (Biorad, Calif.) were concentrated using a Centricon 30 concentrator (Millipore). sBACE1 purity was estimated to be ˜90% as assessed by SDS-PAGE and Commassie Blue staining. […]
IC50 determinations for inhibitors, (I), were determined by measuring the percent change of the relative fluorescence at 665 nm divided by the relative fluorescence at 620 nm, (665/620 ratio), in the presence of varying concentrations of I and a fixed concentration of enzyme and substrate. […]

T1 sequence (P56817 22-454): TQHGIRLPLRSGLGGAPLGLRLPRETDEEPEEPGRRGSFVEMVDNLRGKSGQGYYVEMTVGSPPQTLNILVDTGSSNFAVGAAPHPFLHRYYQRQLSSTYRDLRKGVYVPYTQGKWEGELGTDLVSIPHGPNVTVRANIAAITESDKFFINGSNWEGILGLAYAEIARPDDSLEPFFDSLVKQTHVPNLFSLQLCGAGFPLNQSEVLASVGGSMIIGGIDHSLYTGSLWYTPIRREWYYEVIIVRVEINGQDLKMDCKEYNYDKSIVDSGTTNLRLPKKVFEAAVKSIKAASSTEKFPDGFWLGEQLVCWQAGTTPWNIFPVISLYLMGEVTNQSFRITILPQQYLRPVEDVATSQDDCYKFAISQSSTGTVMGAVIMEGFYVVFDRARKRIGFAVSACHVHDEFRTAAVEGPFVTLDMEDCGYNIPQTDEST

In the case of `CCCCCN1CC(C(=O)NC(Cc2cc(F)cc(F)c2)[C@H](O)[C@@H]2NCCN(Cc3ccccc3)C2=O)N(Cc2ccccc2)C1=O` (stereo partly shown) [Example 5FF], the 50% inhibitory concentration (IC50) worked out at 1 nM.

Broadly, the IC50 is the concentration at which inhibition is half-maximal.
